Source: patent publication US12187705B2, “Heteroaryl-triazole and heteroaryl-tetrazole compounds as pesticides” (Bayer Aktiengesellschaft, priority 2018, dated 2025)

What was measured:
Format in all cases: in vivo
Ctenocephalides felis [1] = experiment: Ctenocephalides felis oral test; conditions: Ctenocephalides felis, in Bos taurus, po, 48 h
Method in brief: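 About 20 adult unfed fleas fed through parafilm on cattle blood containing compound (DMSO concentrate diluted in blood); blood held at 37° C., fleas at room temperature. Mortality in % scored after 2 days (100% = all killed).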

Phaedon cochleariae = Phaedon cochleariae spray test; conditions: foliar, 168 h, Chinese cabbage leaf disks, after 7 days
Method: Phaedon cochleariae—Spray Test
(§1) To produce a suitable preparation of active compound, 1 part by weight of active compound is mixed with the stated amount of solvents and is diluted with water, containing an emulsifier concentration of 1000 ppm, to the desired concentration. Further test concentrations are prepared by dilution with emulsifier containing water.
Chinese cabbage (Brassica pekinensis) leaf disks are sprayed with a preparation of the active ingredient of the desired concentration. Once dry, the leaf disks are infested with mustard beetle larvae (Phaedon cochleariae).
After 7 days mortality in % is determined. 100% means all beetle larvae have been killed and 0% means none of the beetle larvae have been killed.

Diabrotica balteata = Diabrotica balteata spray test; conditions: Diabrotica balteata, 168 h; 160 μg/well, wheat seeds, after 7 days; read-out: efficacy (seedlings grown)
Method in brief: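 Wheat seeds germinated 1 day on agar were sprayed with compound diluted in water with 1000 ppm emulsifier, then infested with 10-20 Diabrotica balteata larvae. Efficacy in % scored after 7 days: 100% = seedlings grown as untreated, uninfected control; 0% = no seedlings grown.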

Nezara viridula = Nezara viridula spray test; conditions: in Hordeum vulgare, 96 h
Method in brief: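 Barley plants infested with stink bug larvae were sprayed with compound diluted in water containing 1000 ppm emulsifier. Mortality (%) was scored after 4 days, 100% meaning all bugs killed.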

Ctenocephalides felis [2] = experiment: Ctenocephalides felis in-vitro contact test adult cat flea; conditions: Ctenocephalides felis; 5 μg/cm^2 (=500 g/ha), after 48 hours; read-out: efficacy (fleas dead or moribund)
Method in brief: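 Compound in acetone was coated on glass tube walls, giving 5 μg/cm^2 at 900 ppm. 5-10 adult cat fleas were held at room temperature for 48 h, then heat-challenged at 45-50° C. Fleas immotile or uncoordinated were scored dead/moribund, expressed as % efficacy.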

Boophilus microplus = Boophilus microplus injection test; conditions: Rhipicephalus microplus, 168 h, 20 μg/animal, egg deposition after 7 days, read-out: efficacy (infertile eggs)
Method: Boophilus microplus—Injection Test
Solvent: dimethyl sulfoxide
To produce a suitable preparation of active compound, 10 mg of active compound are dissolved in 0.5 ml solvent, and the concentrate is diluted with solvent to the desired concentration.
Five adult engorged female ticks (Boophilus microplus) are injected with 1 μl compound solution into the abdomen. The ticks are transferred into replica plates and incubated in a climate chamber.
After 7 days egg deposition of fertile eggs is monitored. Eggs where fertility is not visible are stored in a climate chamber till hatching after about 42 days. An efficacy of 100% means all eggs are infertile; 0% means all eggs are fertile.

Myzus persicae [3] = experiment: Myzus persicae oral test; conditions: 120 h
Method in brief: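 Feeding test: compound diluted in water was combined with IPL41 insect medium (33%+15% sugar) under a parafilm seal. A mixed population of green peach aphids fed through the membrane. Mortality (%) was scored after 5 days.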

Myzus persicae [4] = experiment: Myzus persicae spray test; conditions: in Brassica rapa, foliar, 120 h
Method: Myzus persicae—Spray Test
as §1
Chinese cabbage (Brassica pekinensis) leaf disks infected with all instars of the green peach aphid (Myzus persicae), are sprayed with a preparation of the active ingredient of the desired concentration.
After 5 days mortality in % is determined. 100% means all aphids have been killed and 0% means none of the aphids have been killed.

Nilaparvata lugens = Nilaparvata lugens spray test; conditions: Nilaparvata lugens, in Oryza sativa, 96 h
Method: Nilaparvata lugens—Spray Test
as §1
Rice plants (Oryza sativa) are sprayed with a preparation of the active ingredient of the desired concentration and the plants are infested with the brown planthopper (Nilaparvata lugens).
After 4 days mortality in % is determined. 100% means all planthoppers have been killed and 0% means none of the planthoppers have been killed.

Spodoptera frugiperda = Spodoptera frugiperda spray test; conditions: in Zea mays, 168 h
Method: Spodoptera frugiperda—Spray Test
as §1
Maize (Zea mays) leaf sections are sprayed with a preparation of the active ingredient of the desired concentration. Once dry, the leaf sections are infested with fall armyworm larvae (Spodoptera frugiperda).
After 7 days mortality in % is determined. 100% means all caterpillars have been killed and 0% means none of the caterpillars have been killed.

[5] = tested on: Aedes aegypti strain MONHEIM; experiment: Aedes aegypti test (AEDSAE surface treatment & contact assay); conditions: 24 hours after contact, read-out: efficacy (mortality); for mortality at 4 mg/m2: surface concentration 4 mg/m^2, 30 minutes exposure; for mortality at 20 mg/m2: surface concentration 20 mg/m^2, 30 minutes exposure
Method: Aedes aegypti Test (AEDSAE Surface Treatment & Contact Assay)
(§2) Solvent: Aceton+2000 ppm rapeseed oil methyl ester (RME)
(§3) In order to produce a sufficient, active ingredient containing solution it is necessary to solve the test-compound in the solvent-mix (Acetone at 2 mg/ml/RME 2000 ppm). This solution is pipetted onto a glazed tile and after evaporation of the Acetone, adult mosquitoes of the species Aedes aegypti strain MONHEIM are placed onto the dried surface. The exposure time is 30 minutes.
(§4) Mortality in percent (%) is determined 24 hours after contact to the treated surface. 100% mortality means that all test-insects are dead, whereas 0% means that not a single insect died.

[6] = tested on: Culex quinquefasciatus strain P00; experiment: Culex quinquefasciatus test (CULXFA surface treatment & contact assay); conditions: 24 hours after contact, read-out: efficacy (mortality); for mortality at 4 mg/m2: surface concentration 4 mg/m^2, 30 minutes exposure; for mortality at 20 mg/m2: surface concentration 20 mg/m^2, 30 minutes exposure
Method in brief: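 Compound dissolved in acetone (2 mg/ml) with 2000 ppm rapeseed oil methyl ester, applied to glazed tile and dried. Adult strain P00 mosquitoes exposed to the surface for 30 minutes. Percent mortality scored 24 hours after contact.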

[7] = tested on: Musca domestica strain WHO-N; experiment: Musca domestica test (MUSCDO surface treatment & contact assay); conditions: 24 hours after contact, read-out: efficacy (mortality); for mortality at 20 mg/m2: surface concentration 20 mg/m^2, 30 minutes exposure; for mortality at 4 mg/m2: surface concentration 4 mg/m^2, 30 minutes exposure
Method: Musca domestica Test (MUSCDO Surface Treatment & Contact Assay)
as §2
as §3, with “flies” for “mosquitoes”, “Musca domestica” for “Aedes aegypti”, “WHO-N” for “MONHEIM”
as §4

[8] = tested on: Anopheles funestus strain FUMOZ-R; experiment: Anopheles funestus test (ANPHFU surface treatment & contact assay); conditions: 24 hours after contact, read-out: efficacy (mortality); for mortality at 4 mg/m2: surface concentration 4 mg/m^2, 30 minutes exposure; for mortality at 20 mg/m2: surface concentration 20 mg/m^2, 30 minutes exposure
Method: Anopheles funestus Test (ANPHFU Surface Treatment & Contact Assay)
as §2
as §3, with “Anopheles funestus” for “Aedes aegypti”, “FUMOZ-R (Hunt et al., Med Vet Entomol. 2005 September; 19(3):271-5)” for “MONHEIM”
as §4

Structure (SMILES)	mortality at 100 ppm (Ctenocephalides felis [1]) [%]	mortality at 500 g/ha (Phaedon cochleariae) [%]	pest or weed control at 160 µg/disc, 160 µg/well (Diabrotica balteata) [%]	mortality at 500 g/ha (Nezara viridula) [%]	pest or weed control at 5 µg/cm2, 5 µg/cm2 (Ctenocephalides felis [2]) [%]	pest or weed control at 0.02 mg (Boophilus microplus) [%]	mortality at 4 ppm (Myzus persicae [3]) [%]	mortality at 500 g/ha (Myzus persicae [4]) [%]	mortality at 500 g/ha (Nilaparvata lugens) [%]	mortality at 500 g/ha (Spodoptera frugiperda) [%]	mortality at 4 mg/m2 [5] [%]	mortality at 20 mg/m2 [5] [%]	mortality at 4 mg/m2 [6] [%]	mortality at 20 mg/m2 [6] [%]	mortality at 20 mg/m2 [7] [%]	mortality at 4 mg/m2 [8] [%]	mortality at 20 mg/m2 [8] [%]	mortality at 4 mg/m2 [7] [%]
CC(c1ncnn1-c1ncccn1)N(CC1CC1)C(=O)c1cc(-c2ccccc2)cc(C(F)(F)F)c1 (centres unmarked) [Example I-010]	100	100	–	–	–	–	–	–	–	–	–	–	–	–	–	–	–	–
CC(c1ncnn1-c1ncccn1)N(CC1CC1)C(=O)c1cccc(Cl)c1Cl (centres unmarked) [Example I-016]	–	100	100	100	–	–	–	–	–	–	–	–	–	–	–	–	–	–
CC(c1ncnn1-c1ncccn1)N(CC1CC1)C(=O)c1c(Cl)c(C(F)(F)F)nn1C (centres unmarked) [Example I-026]	–	100	100	–	–	–	–	–	–	–	–	–	–	–	–	–	–	–
C[C@@H](NC(=O)c1cc(Cl)cc(S(=O)(=O)c2ccc(F)cc2)c1)c1ncnn1-c1ncccn1 [Example I-043]	100	–	100	100	90	100	100	90	100	100	80 to 100	90 to 100	80 to 100	80 to 100	80 to 100	–	–	–
C[C@@H](NC(=O)c1cc(Cl)cc(S(=O)(=O)C(F)(F)F)c1)c1ncnn1-c1ccc(C#N)cn1 [Example I-067]	100	–	100	100	90	80	100	–	–	100	80 to 100	90 to 100	80 to 100	80 to 100	80 to 100	–	–	–
C[C@@H](NC(=O)c1cc(Cl)cc(S(=O)(=O)C(F)(F)F)c1)c1ncnn1-c1ccccn1 [Example I-068]	100	–	100	100	90	100	90	–	–	100	80 to 100	90 to 100	80 to 100	80 to 100	80 to 100	85 to 100	85 to 100	80 to 100
C[C@@H](NC(=O)c1cc(Cl)cc([S+](C)[O-])c1)c1ncnn1-c1ccc(C#N)cn1 (some centres unmarked) [Example I-070]	100	–	100	100	100	100	100	100	–	100	80 to 100	90 to 100	80 to 100	80 to 100	80 to 100	85 to 100	85 to 100	–
C[C@@H](NC(=O)c1cc(Cl)cc(S(=O)(=O)C(F)(F)F)c1)c1ncnn1-c1cnccn1 [Example I-074]	100	–	100	100	90	100	100	90	–	100	–	90 to 100	–	80 to 100	80 to 100	–	–	–
C[C@@H](NC(=O)c1cc(Cl)cc(S(=O)(=O)C(F)(F)F)c1)c1ncnn1-c1ncc(F)cc1F [Example I-078]	–	–	100	100	–	–	–	–	–	100	80 to 100	90 to 100	80 to 100	80 to 100	80 to 100	–	85 to 100	–
C[C@H](NC(=O)c1cc(Cl)cc(S(C)(=O)=O)c1)c1nc(C(F)(F)F)nn1-c1ncccn1 [Example I-091, 3-chloro-N-{(1S)-1-[1-(2-pyrimidinyl)-3-(trifluoromethyl)-1H-1,2,4-triazol-5-yl]ethyl}-5-(methylsulfonyl)benzamide]	100	–	100	100	100	–	100	90	–	83	80 to 100	90 to 100	80 to 100	80 to 100	–	–	85 to 100	–
C[C@H](NC(=O)c1cc(Cl)cc([S+]([O-])CC(F)(F)F)c1)c1ncnn1-c1ncccn1 (stereo partly drawn) [Example I-092, 3-chloro-N-{(1S)-1-[1-(pyrimidin-2-yl)-1H-1,2,4-triazol-5-yl]ethyl}-5-[(2,2,2-trifluoroethyl)sulfinyl]benzamide]	–	–	100	100	80	–	100	100	100	–	80 to 100	90 to 100	80 to 100	80 to 100	–	85 to 100	–	–
C[C@@H](NC(=O)c1cc(C(F)(F)F)n(C)n1)c1ncnn1-c1ncccn1 [Example I-100]	–	–	100	100	–	–	–	90	100	100	80 to 100	90 to 100	80 to 100	80 to 100	80 to 100	85 to 100	85 to 100	80 to 100
